The test system of assay [1] is H3K27Me3 levels in HeLa cells. As to the kind of experiment: Immunofluorescence of global H3K27Me3 levels on overexpression in HeLa cells. It counts as cell-based. Particulars: exogenous overexpression in HeLa cells. As to the method: For cell-based experiments, HEK 293T and HeLa cells were cultured at 37 °C and 5% CO2 in DMEM (Lonza) supplemented with 10% fetal bovine serum (FBS) (Invitrogen) and 1% Glutamax (Invitrogen). For microscopy, HeLa cells were seeded into 96-well clear bottom optical grade plates (BD Biosciences) at 8000 cells/well and allowed to settle overnight. Transfections were carried out the next day. For each well, 0.1 μg of plasmid and 0.25 μl of Lipofectamine 2000 (Invitrogen) were each incubated in 25 μl of Opti-MEM (Invitrogen) for 5 min at room temperature. The two solutions were then mixed gently but thoroughly and incubated for 20 min at room temperature. The mixture was added to the cells in 50 μl of fresh medium. Four hours later, the medium was changed, and the cells were incubated for a further 24 h before fixation. Cells were fixed in 4% (v/v) aqueous formaldehyde for 20 min, permeabilized in 0.5% Triton X-100 in phosphate-buffered saline (PBS) for 8 min, and blocked in 3% (w/v) FBS in PBS for 1 h with a PBS wash between each step. The primary antibodies were then added to the cells in blocking solution. […] Luciferase activity was measured using the Promega Dual-Luciferase Reporter Assay System on a Promega GloMax 20/20 luminometer. Readings were normalized to a Renilla luciferase control that was co-transfected with all samples. […]

For assay [2], the system named is UTY(KDM6C) dephosphorylated in vitro using λ-phosphatase. As to the kind of experiment: 2OG turnover by 1H NMR, dephosphorylated UTY(KDM6C). In kind it is biochemical, human. The conditions noted are these: UTY(KDM6C) dephosphorylated with λ-phosphatase, 10 μM, in 28 min.
The test system of assay [3] is partially phosphorylated UTY(KDM6C). As to the kind of experiment: 2OG turnover by 1H NMR, partially phosphorylated UTY(KDM6C). In kind it is biochemical, human. Particulars: 10 μM, in 28 min.
For assay [4], the target named is T1, KDM6A (Homo sapiens, UniProt O15550).
T1 construct: KDM6B and KDM6A plasmids were used as described previously; made in house; host or cells: Escherichia coli BL21 (DE3)
The experiment in a line: Demethylation of histone peptide by MALDI-TOF MS, KDM6A. In kind it is biochemical. Particulars: KDM6A positive control. The procedure: (§1) Reaction components were premixed in two batches ((i) enzyme, Fe(II), and ascorbate and (ii) 2OG and peptide), and reactions were initiated by mixing the enzyme and substrate mix. Reactions were incubated at 37 °C for the indicated times before being quenched with methanol in a 1:1 ratio.
(§2) Product formation was assessed by MALDI-TOF MS. One microliter of quenched reaction was mixed with 1 μl of α-cyano-4-hydroxycinnamic acid and spotted onto a MALDI-TOF plate for analysis using a MALDI micro-MX mass spectrometer (Waters) in reflectron positive ion mode with pulse voltage 1250 V, detector voltage 2750 V, and mass suppression 1000 Da. Data were analyzed using MassLynx version 4.0. For inhibitor assays, inhibition levels were measured relative to an inhibitor-free reaction.
(§3) With catalytically active UTY(KDM6C) in hand, we then investigated whether a longer UTY(KDM6C) construct (residues 818–1347, herein UTY(KDM6C)) can act as a KDM. UTY(KDM6C) was incubated for 1 h at 37 °C with histone peptide fragments corresponding to known mono-, di-, and tri- lysine methylation sites of histone 3 (at Lys^4, Lys^9, Lys^27, and Lys^36) and histone 4 (at Lys^20) (Table 3). Demethylation was assessed by a mass spectrometric (MS) assay with mass shifts of −14 and −28 Da, corresponding to mono- and didemethylation, respectively. […]

For assay [5], the system named is UTY(KDM6C). As to the kind of experiment: Demethylation of histone peptides by MALDI-TOF MS, UTY(KDM6C). In kind it is biochemical, human. The conditions noted are these: UTY(KDM6C) 818–1347, 1 h at 37 °C. The procedure: as §1, §2
With catalytically active UTY(KDM6C) in hand, we then investigated whether a longer UTY(KDM6C) construct (residues 818–1347, herein UTY(KDM6C)) can act as a KDM. UTY(KDM6C) was incubated for 1 h at 37 °C with histone peptide fragments corresponding to known mono-, di-, and tri- lysine methylation sites of histone 3 (at Lys^4, Lys^9, Lys^27, and Lys^36) and histone 4 (at Lys^20) (Table 3). Demethylation was assessed by a mass spectrometric (MS) assay with mass shifts of −14 and −28 Da, corresponding to mono- and didemethylation, respectively. […] The predominant product was H3K27Me2, resulting from a single demethylation; a smaller amount of H3K27Me1 was observed as a result of didemethylation (Fig. 3C). Demethylation was dependent on the presence of Fe(II)/2OG.

In assay [6] the target is T2, KDM6B (Homo sapiens, UniProt O15054).
T2 construct: KDM6B and KDM6A plasmids were used as described previously; made in house; host or cells: Escherichia coli BL21 (DE3)
As to the kind of experiment: Demethylation of histone peptide by MALDI-TOF MS, KDM6B. In kind it is biochemical. Particulars: KDM6B positive control. The procedure:
as §1, §2, §3

The target in assay [7] is T1, KDM6A. As to the kind of experiment: Inhibition of H3K27Me3 peptide demethylation, KDM6A. In kind it is biochemical. Particulars: 10 μM inhibitor, 15 min preincubation, 20 min at 37 °C. As to the method: as §1
(§4) For inhibition assays, the same enzyme/Fe(II)/ascorbate mixture was preincubated with 10 μM inhibitor for 15 min before the reaction was initiated by the addition of the peptide substrate solution. Reactions were quenched with 1:1 methanol after 20 min at 37 °C.
as §2

Assay [8] relates to UTY(KDM6C). The experiment in a line: Inhibition of H3K27Me3 peptide demethylation, UTY(KDM6C). Particulars: 10 μM inhibitor, 15 min preincubation, 20 min at 37 °C. It counts as biochemical, human. The procedure: as §1, §4, §2
In assay [9] the test system is KDM6. The experiment in a line: Demethylation of histone peptide by 1H NMR, KDM6. The conditions noted are these: KDM6 catalyzed. In kind it is biochemical, human. From the text: The total echo time was 48 ms.

T1 sequence (O15550 whole entry): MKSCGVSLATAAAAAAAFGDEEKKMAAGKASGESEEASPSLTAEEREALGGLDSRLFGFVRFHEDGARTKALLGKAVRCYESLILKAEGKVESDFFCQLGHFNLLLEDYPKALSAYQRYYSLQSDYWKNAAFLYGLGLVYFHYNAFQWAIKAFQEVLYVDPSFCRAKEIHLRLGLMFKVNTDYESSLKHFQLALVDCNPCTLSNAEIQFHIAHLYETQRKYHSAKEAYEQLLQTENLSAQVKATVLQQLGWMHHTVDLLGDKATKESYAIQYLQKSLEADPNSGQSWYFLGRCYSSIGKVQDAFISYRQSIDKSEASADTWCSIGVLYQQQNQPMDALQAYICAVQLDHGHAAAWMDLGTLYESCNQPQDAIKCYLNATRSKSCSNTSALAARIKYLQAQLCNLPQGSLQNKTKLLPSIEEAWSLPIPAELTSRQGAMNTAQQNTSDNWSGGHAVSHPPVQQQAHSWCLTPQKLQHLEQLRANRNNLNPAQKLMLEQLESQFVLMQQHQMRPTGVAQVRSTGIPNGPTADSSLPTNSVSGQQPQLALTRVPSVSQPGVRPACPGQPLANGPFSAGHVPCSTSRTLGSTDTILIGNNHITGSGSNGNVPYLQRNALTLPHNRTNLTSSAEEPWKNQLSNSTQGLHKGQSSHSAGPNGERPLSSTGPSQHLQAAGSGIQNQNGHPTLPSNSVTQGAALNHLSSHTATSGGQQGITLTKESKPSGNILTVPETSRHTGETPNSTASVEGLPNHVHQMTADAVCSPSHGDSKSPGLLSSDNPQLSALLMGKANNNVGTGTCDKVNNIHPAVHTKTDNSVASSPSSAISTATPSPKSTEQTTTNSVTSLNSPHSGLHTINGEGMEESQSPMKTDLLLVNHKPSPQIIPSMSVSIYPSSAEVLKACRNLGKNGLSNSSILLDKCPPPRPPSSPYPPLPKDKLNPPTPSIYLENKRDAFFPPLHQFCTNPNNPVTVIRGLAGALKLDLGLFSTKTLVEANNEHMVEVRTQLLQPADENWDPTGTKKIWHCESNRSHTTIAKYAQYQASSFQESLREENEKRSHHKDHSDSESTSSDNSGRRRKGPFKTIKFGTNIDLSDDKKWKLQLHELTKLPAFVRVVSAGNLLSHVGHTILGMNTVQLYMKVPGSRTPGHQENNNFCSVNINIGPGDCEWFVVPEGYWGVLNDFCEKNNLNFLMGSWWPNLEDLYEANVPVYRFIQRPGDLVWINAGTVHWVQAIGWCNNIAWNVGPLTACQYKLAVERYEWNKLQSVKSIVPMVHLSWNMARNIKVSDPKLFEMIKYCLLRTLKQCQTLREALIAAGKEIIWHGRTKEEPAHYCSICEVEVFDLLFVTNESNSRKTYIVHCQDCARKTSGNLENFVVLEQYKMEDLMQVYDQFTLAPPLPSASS
T2 sequence (O15054 whole entry): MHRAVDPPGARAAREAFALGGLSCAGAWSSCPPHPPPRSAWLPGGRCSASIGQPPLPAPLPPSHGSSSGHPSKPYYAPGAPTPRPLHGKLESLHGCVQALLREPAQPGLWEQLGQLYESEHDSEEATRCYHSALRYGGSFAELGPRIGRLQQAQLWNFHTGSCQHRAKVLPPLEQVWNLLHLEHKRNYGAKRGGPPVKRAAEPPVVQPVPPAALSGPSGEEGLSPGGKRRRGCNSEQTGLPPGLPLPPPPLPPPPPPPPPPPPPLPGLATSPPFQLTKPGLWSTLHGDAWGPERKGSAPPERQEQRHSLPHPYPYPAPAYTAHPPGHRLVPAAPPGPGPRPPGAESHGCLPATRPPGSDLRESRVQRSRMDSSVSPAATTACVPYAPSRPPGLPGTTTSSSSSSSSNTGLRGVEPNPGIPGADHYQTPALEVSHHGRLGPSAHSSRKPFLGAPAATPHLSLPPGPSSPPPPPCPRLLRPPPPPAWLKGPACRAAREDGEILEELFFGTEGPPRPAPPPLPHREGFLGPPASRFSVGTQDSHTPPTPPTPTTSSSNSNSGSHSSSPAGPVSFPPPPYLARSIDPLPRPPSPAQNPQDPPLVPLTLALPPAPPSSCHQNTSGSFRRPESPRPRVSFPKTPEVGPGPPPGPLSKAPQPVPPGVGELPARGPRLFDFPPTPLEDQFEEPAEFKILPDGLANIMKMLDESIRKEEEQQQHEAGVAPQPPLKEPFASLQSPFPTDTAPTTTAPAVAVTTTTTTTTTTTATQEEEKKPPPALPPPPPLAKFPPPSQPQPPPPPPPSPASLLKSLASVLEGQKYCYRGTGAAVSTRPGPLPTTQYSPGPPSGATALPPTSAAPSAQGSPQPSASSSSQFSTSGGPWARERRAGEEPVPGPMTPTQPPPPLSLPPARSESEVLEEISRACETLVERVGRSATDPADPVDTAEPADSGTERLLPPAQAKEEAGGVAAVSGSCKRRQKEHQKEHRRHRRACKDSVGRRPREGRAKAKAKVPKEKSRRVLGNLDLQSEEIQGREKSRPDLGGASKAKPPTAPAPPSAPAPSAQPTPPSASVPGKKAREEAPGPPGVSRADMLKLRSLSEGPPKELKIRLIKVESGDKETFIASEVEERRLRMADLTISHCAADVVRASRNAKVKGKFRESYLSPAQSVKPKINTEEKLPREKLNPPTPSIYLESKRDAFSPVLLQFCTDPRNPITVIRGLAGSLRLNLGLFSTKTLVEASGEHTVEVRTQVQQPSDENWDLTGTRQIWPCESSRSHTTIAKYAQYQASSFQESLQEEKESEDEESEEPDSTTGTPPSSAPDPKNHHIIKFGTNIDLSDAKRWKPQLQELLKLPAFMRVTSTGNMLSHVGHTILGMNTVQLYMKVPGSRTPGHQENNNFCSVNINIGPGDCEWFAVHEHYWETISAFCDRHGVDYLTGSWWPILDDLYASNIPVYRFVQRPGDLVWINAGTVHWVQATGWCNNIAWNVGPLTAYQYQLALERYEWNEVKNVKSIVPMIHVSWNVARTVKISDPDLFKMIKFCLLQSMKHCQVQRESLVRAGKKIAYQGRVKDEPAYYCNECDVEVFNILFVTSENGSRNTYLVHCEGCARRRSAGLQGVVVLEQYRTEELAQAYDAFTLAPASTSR

In the case of “FL WT KDM6B: full-length wild type KDM6B, positive control”, the “change in global H3K27Me3 level” value in assay [1] was “a decrease was observed”.

On to `O=C(O)CCC(=O)C(=O)O` [2OG, 2-oxoglutarate], for which the succinate produced in assay [2] and in assay [3] was 7 ± 0.5 nmol each time.

For the compound “GGKAPRKQLATKAARKMe3SAPATGG [23-residue histone peptide containing H3K27Me3 (histone 3, 12–34)]”, the demethylation result in [4] is “demethylation was observed”; in [5], “catalyzes the demethylation”; in [5] (listed as H3K27Me3 peptide (histone 3, 12–34)), “demethylation was observed”; in assay [6], “demethylation was observed”. Moreover, the minor demethylation product result in [5] (didemethylation, smaller amount) is recorded as “H3K27Me1”. Besides, in [5] (single demethylation), the predominant demethylation product entry is on record as “H3K27Me2”.

Regarding `O=C(O)CCNc1cc(N2CCc3ccccc3CC2)nc(-c2ccccn2)n1` [GSK-J1], the “potency rank among nine inhibitors” value in [7] and in assay [8] was “most potent inhibitor” throughout. The inhibition of demethylation entry in assay [8] (H3K27Me3 peptide, MALDI MS) is “inhibition of UTY(KDM6C) activity by GSK-J1 was observed”.

With “GGKAPRKQLATKAARKMe3SAPATGGV [24-residue histone peptide containing H3K27Me3]”, the demethylation result in assay [9] is on record as “KDM6 catalyzed demethylation”.

Values taken from paper PMC4140284, “Human UTY(KDM6C) Is a Male-specific N^ϵ-Methyl Lysyl Demethylase” (The Journal of Biological Chemistry, 2014).
